Data as given in patent publication US7118895B2, “Process for producing aglycon by using diglycosidase and flavor-improved food containing the aglycon and converting agent to be used in the process” (Amano Enzyme Inc., priority 2000, dated 2006).

Tested on: Crude diglycosidase
Assay: Examination of temperature in the conversion into isoflavone aglycons by diglycosidase using soybean materials
Assay type: biochemical, Penicillium multicolor IAM7153
Design: Decomposition efficiency of glycitin family in roasted soy flour / Decomposition efficiency of daidzin family in roasted soy flour / Decomposition efficiency of genistin family in soymilk / Decomposition efficiency of daidzin family in soymilk / Decomposition efficiency of glycitin family in defatted soybean / Decomposition efficiency of daidzin family in defatted soybean: concentration or dose not given beside the values
Details: for maximum isolation of aglycons: reaction at 55° C. for 6 hours
Experimental: Into 400 μL of 20 mM acetate buffer of pH 4.0 was suspended 50 mg of each of various soybean materials (roasted soy flour (manufactured by Fuji Shokuryo K.K.), soymilk (manufactured by Gitoh Shokuhin K.K.), defatted soybean (manufactured by Fuji Seiyu K.K.), concentrated soybean protein (manufactured by Fuji Seiyu K.K.)), whereby a substrate solution was prepared. Crude diglycosidase was diluted with 20 mM acetate buffer of pH 4.0 to be the glycosidase activity of 1.88 AU/mL. Fifty μL of the enzyme solution was mixed with the substrate solution and the whole was reacted at 80, 65, 55, 45, 37, or 30° C. at the total volume of 500 μL. To the reaction mixture was added 700 μL of ethanol after 0, 1, 3, and 6 hours of the reaction. After stirring and ultrasonication, the mixture was subjected to centrifugal separation at 15,000 rpm and 4° C. for 10 minutes. The supernatant was filtered through a filter and the existence of isoflavone glycosides and aglycon isoflavones contained in the reaction mixture was detected by HLPC.

[1] = 30 °C, heat treatment of enzyme: no, 0 h
[2] = 30 °C, heat treatment of enzyme: no, 1 h
[3] = 30 °C, heat treatment of enzyme: no, 3 h
[4] = 30 °C, heat treatment of enzyme: no, 6 h
[5] = 30 °C, heat treatment of enzyme: yes, 6 h
[6] = 45 °C, heat treatment of enzyme: no, 0 h
[7] = 45 °C, heat treatment of enzyme: no, 1 h
[8] = 45 °C, heat treatment of enzyme: no, 3 h
[9] = 45 °C, heat treatment of enzyme: no, 6 h
[10] = 45 °C, heat treatment of enzyme: yes, 6 h
[11] = 55 °C, heat treatment of enzyme: no, 0 h
[12] = 55 °C, heat treatment of enzyme: no, 1 h
[13] = 55 °C, heat treatment of enzyme: no, 3 h
[14] = 55 °C, heat treatment of enzyme: no, 6 h
[15] = 55 °C, heat treatment of enzyme: yes, 6 h
[16] = 65 °C, heat treatment of enzyme: no, 0 h
[17] = 65 °C, heat treatment of enzyme: no, 1 h
[18] = 65 °C, heat treatment of enzyme: no, 3 h
[19] = 65 °C, heat treatment of enzyme: no, 6 h
[20] = 65 °C, heat treatment of enzyme: yes, 6 h
[21] = 80 °C, heat treatment of enzyme: no, 0 h
[22] = 80 °C, heat treatment of enzyme: no, 1 h
[23] = 80 °C, heat treatment of enzyme: no, 3 h
[24] = 80 °C, heat treatment of enzyme: no, 6 h
[25] = 80 °C, heat treatment of enzyme: yes, 6 h

`COc1cc2c(=O)c(-c3ccc(O)cc3)coc2cc1O` [glycitein] was tested, and the “Decomposition efficiency of glycitin family in defatted soybean” value (30° C., heat treatment of enzyme no, reaction time 0 h) was 38.7%, the “Decomposition efficiency of glycitin family in defatted soybean” value (30° C., heat treatment of enzyme no, reaction time 1 h) was 51.7% and the “Decomposition efficiency of glycitin family in defatted soybean” value (30° C., heat treatment of enzyme no, reaction time 3 h) was 55.4%. The “Decomposition efficiency of glycitin family in defatted soybean” value (30° C., heat treatment of enzyme no, reaction time 6 h) was 54.4%, the “Decomposition efficiency of glycitin family in defatted soybean” value (30° C., heat treatment of enzyme yes, reaction time 6 h) was 54.9% and the “Decomposition efficiency of glycitin family in concentrated soybean protein” value [1] was 11.4%. The “Decomposition efficiency of glycitin family in roasted soy flour” value [1] was 10.4%, the “Decomposition efficiency of glycitin family in soymilk” value (“Decomposition efficiency … in soymilk” for short) [1] was 8.1% and the “Decomposition efficiency of glycitin family in concentrated soybean protein” value [2] was 17.5%. The “Decomposition efficiency of glycitin family in roasted soy flour” value [2] was 31.5%, the “Decomposition efficiency … in soymilk” value [2] was 49.0% and the “Decomposition efficiency of glycitin family in concentrated soybean protein” value [3] was 26.9%. The “Decomposition efficiency of glycitin family in roasted soy flour” value [3] was 66.8%, the “Decomposition efficiency … in soymilk” value [3] was 60.4% and the “Decomposition efficiency of glycitin family in concentrated soybean protein” value [4] was 40.3%. For the same compound, the “Decomposition efficiency of glycitin family in roasted soy flour” value [4] was 80.9%, the “Decomposition efficiency … in soymilk” value [4] was 71.6% and the “Decomposition efficiency of glycitin family in concentrated soybean protein” value [5] was 11.3%. For the same compound, the “Decomposition efficiency of glycitin family in roasted soy flour” value [5] was 11.1%, the “Decomposition efficiency … in soymilk” value [5] was 7.9% and the “Decomposition efficiency of glycitin family in defatted soybean” value (45° C., heat treatment of enzyme no, reaction time 0 h) was 34.8%. For the same compound, the “Decomposition efficiency of glycitin family in defatted soybean” value (45° C., heat treatment of enzyme no, reaction time 1 h) was 55.7%, the “Decomposition efficiency of glycitin family in defatted soybean” value (45° C., heat treatment of enzyme no, reaction time 3 h) was 55.2% and the “Decomposition efficiency of glycitin family in defatted soybean” value (45° C., heat treatment of enzyme no, reaction time 6 h) was 59.0%. For the same compound, the “Decomposition efficiency of glycitin family in defatted soybean” value (45° C., heat treatment of enzyme yes, reaction time 6 h) was 55.8%, the “Decomposition efficiency of glycitin family in concentrated soybean protein” value [6] was 11.4% and the “Decomposition efficiency of glycitin family in roasted soy flour” value [6] was 10.4%. The “Decomposition efficiency … in soymilk” value [6] was 8.2%, the “Decomposition efficiency of glycitin family in concentrated soybean protein” value [7] was 35.2% and the “Decomposition efficiency of glycitin family in roasted soy flour” value [7] was 60.2%. For the same compound, the “Decomposition efficiency … in soymilk” value [7] was 53.8%, the “Decomposition efficiency of glycitin family in concentrated soybean protein” value [8] was 49.6% and the “Decomposition efficiency of glycitin family in roasted soy flour” value [8] was 67.4%. The “Decomposition efficiency … in soymilk” value [8] was 70.1%, the “Decomposition efficiency of glycitin family in concentrated soybean protein” value [9] was 64.9% and the “Decomposition efficiency of glycitin family in roasted soy flour” value [9] was 85.0%. For the same compound, the “Decomposition efficiency … in soymilk” value [9] was 84.7%, the “Decomposition efficiency of glycitin family in concentrated soybean protein” value [10] was 11.3% and the “Decomposition efficiency of glycitin family in roasted soy flour” value [10] was 13.4%. For the same compound, the “Decomposition efficiency … in soymilk” value [10] was 7.4%, the “Decomposition efficiency of glycitin family in defatted soybean” value (55° C., heat treatment of enzyme no, reaction time 0 h) was 38.7% and the “Decomposition efficiency of glycitin family in defatted soybean” value (55° C., heat treatment of enzyme no, reaction time 1 h) was 55.2%. For the same compound, the “Decomposition efficiency of glycitin family in defatted soybean” value (55° C., heat treatment of enzyme no, reaction time 3 h) was 57.4%, the “Decomposition efficiency of glycitin family in defatted soybean” value (55° C., heat treatment of enzyme no, reaction time 6 h) was 57.3% and the “Decomposition efficiency of glycitin family in defatted soybean” value (55° C., heat treatment of enzyme yes, reaction time 6 h) was 54.5%. For the same compound, the “Decomposition efficiency of glycitin family in concentrated soybean protein” value [11] was 11.2%, the “Decomposition efficiency of glycitin family in roasted soy flour” value [11] was 10.4% and the “Decomposition efficiency … in soymilk” value [11] was 7.6%. The “Decomposition efficiency of glycitin family in concentrated soybean protein” value [12] was 51.4%, the “Decomposition efficiency of glycitin family in roasted soy flour” value [12] was 69.9% and the “Decomposition efficiency … in soymilk” value [12] was 60.9%. The “Decomposition efficiency of glycitin family in concentrated soybean protein” value [13] was 69.7%, the “Decomposition efficiency of glycitin family in roasted soy flour” value [13] was 87.9% and the “Decomposition efficiency … in soymilk” value [13] was 72.3%. For the same compound, the “Decomposition efficiency of glycitin family in concentrated soybean protein” value [14] was 72.7%, the “Decomposition efficiency of glycitin family in roasted soy flour” value [14] was 94.0% and the “Decomposition efficiency … in soymilk” value [14] was 83.5%. For the same compound, the “Decomposition efficiency of glycitin family in concentrated soybean protein” value [15] was 11.3%, the “Decomposition efficiency of glycitin family in roasted soy flour” value [15] was 11.0% and the “Decomposition efficiency … in soymilk” value [15] was 6.7%. The “Decomposition efficiency of glycitin family in defatted soybean” value (65° C., heat treatment of enzyme no, reaction time 0 h) was 34.8%, the “Decomposition efficiency of glycitin family in defatted soybean” value (65° C., heat treatment of enzyme no, reaction time 1 h) was 54.7% and the “Decomposition efficiency of glycitin family in defatted soybean” value (65° C., heat treatment of enzyme no, reaction time 3 h) was 57.9%. The “Decomposition efficiency of glycitin family in defatted soybean” value (65° C., heat treatment of enzyme no, reaction time 6 h) was 60.0%, the “Decomposition efficiency of glycitin family in defatted soybean” value (65° C., heat treatment of enzyme yes, reaction time 6 h) was 51.2% and the “Decomposition efficiency of glycitin family in concentrated soybean protein” value [16] was 11.4%. The “Decomposition efficiency of glycitin family in roasted soy flour” value [16] was 10.4%, the “Decomposition efficiency … in soymilk” value [16] was 8.1% and the “Decomposition efficiency of glycitin family in concentrated soybean protein” value [17] was 58.6%. For the same compound, the “Decomposition efficiency of glycitin family in roasted soy flour” value [17] was 65.5%, the “Decomposition efficiency … in soymilk” value [17] was 57.6% and the “Decomposition efficiency of glycitin family in concentrated soybean protein” value [18] was 64.0%. For the same compound, the “Decomposition efficiency of glycitin family in roasted soy flour” value [18] was 69.0%, the “Decomposition efficiency … in soymilk” value [18] was 65.7% and the “Decomposition efficiency of glycitin family in concentrated soybean protein” value [19] was 63.8%. The “Decomposition efficiency of glycitin family in roasted soy flour” value [19] was 71.0%, the “Decomposition efficiency … in soymilk” value [19] was 74.5% and the “Decomposition efficiency of glycitin family in concentrated soybean protein” value [20] was 11.4%. For the same compound, the “Decomposition efficiency of glycitin family in roasted soy flour” value [20] was 10.4%, the “Decomposition efficiency … in soymilk” value [20] was 7.2% and the “Decomposition efficiency of glycitin family in defatted soybean” value (80° C., heat treatment of enzyme no, reaction time 0 h) was 34.8%. The “Decomposition efficiency of glycitin family in defatted soybean” value (80° C., heat treatment of enzyme no, reaction time 1 h) was 53.9%, the “Decomposition efficiency of glycitin family in defatted soybean” value (80° C., heat treatment of enzyme no, reaction time 3 h) was 55.0% and the “Decomposition efficiency of glycitin family in defatted soybean” value (80° C., heat treatment of enzyme no, reaction time 6 h) was 59.7%. For the same compound, the “Decomposition efficiency of glycitin family in defatted soybean” value (80° C., heat treatment of enzyme yes, reaction time 6 h) was 51.9%, the “Decomposition efficiency of glycitin family in concentrated soybean protein” value [21] was 11.4% and the “Decomposition efficiency of glycitin family in roasted soy flour” value [21] was 10.4%. For the same compound, the “Decomposition efficiency … in soymilk” value [21] was 8.2%, the “Decomposition efficiency of glycitin family in concentrated soybean protein” value [22] was 23.8% and the “Decomposition efficiency of glycitin family in roasted soy flour” value [22] was 40.8%. The “Decomposition efficiency … in soymilk” value [22] was 45.7%, the “Decomposition efficiency of glycitin family in concentrated soybean protein” value [23] was 23.4% and the “Decomposition efficiency of glycitin family in roasted soy flour” value [23] was 41.1%. The “Decomposition efficiency … in soymilk” value [23] was 44.9%, the “Decomposition efficiency of glycitin family in concentrated soybean protein” value [24] was 22.8% and the “Decomposition efficiency of glycitin family in roasted soy flour” value [24] was 30.7%. For the same compound, the “Decomposition efficiency … in soymilk” value [24] was 34.4%, the “Decomposition efficiency of glycitin family in concentrated soybean protein” value [25] was 11.4% and the “Decomposition efficiency of glycitin family in roasted soy flour” value [25] was 9.9%. For the same compound, the “Decomposition efficiency … in soymilk” value [25] was 9.3%, the “maximum isolation of aglycons” value (concentrated soybean protein) was “about 73%” and the “maximum isolation of aglycons” value (defatted soybean) was “about 57%”. The “maximum isolation of aglycons” value (soy flour) was “about 94%” and the “maximum isolation of aglycons” value (soymilk) was “about 84%”.
